# Assay results from a melting point compilation (Tetko et al.; mined from patent text by program, amines drawn as free bases though some values may be those of a salt).
row,SMILES,melting point [°C]
1,O=S(=O)(Nc1ccc(I)cc1)c1ccccc1,141 to 143
2,CN1CCN(c2ccc([N+](=O)[O-])cc2)C1=O,207 to 208
3,O=C1CCC(NC(=O)C(Cl)(Cl)Cl)c2ccsc21 (centres undefined),167 to 171
4,CN1C(=O)C(c2ccc(OC(F)F)cc2)(c2ccc(F)c(CF)c2)N=C1N (centres undefined),70 to 73
5,CC(=O)Nc1ccc(Sc2cccnc2)cc1,138 to 140
6,Nc1nc(Br)nc2c1ncn2C1OC(CO)C(O)C1F (centres undefined),209 to 210
7,CC(C)CNC(=O)c1c[nH]c2ncc(-c3nn(C)c4cc(F)ccc34)nc12,285 to 287
8,CN(C)CCCN(C=O)C1CCC2C3CCC4CCCCC4(C)C3CCC21C (centres undefined),122
9,CCCCCCCCCCCC(=O)NCCCSc1ccncc1,71 to 72
10,CCOC(=O)c1coc(=O)cc1S(C)(=O)=O,95 to 97
11,CCS(=O)(=O)c1nsc(NC(=O)NC)c1C#N,258
12,COc1cc(N)c(Cl)cc1C(=O)NN1CCN2CCCCC2C1 (centres undefined),118 to 119
13,CCOC(=O)C(CC(=O)c1ccccc1C(F)(F)F)(NC(C)=O)C(=O)OCC,104 to 105
14,CCOC(=O)c1[nH]c(C)c(-c2ccc(F)cc2)c1C,174 to 175
15,CC(=O)OC1CCC2(C)C(CCC3C2CCC2(C)C(C(C)=O)CCC32)C1 (centres undefined),141 to 142
16,CC1(C)C(Br)C(=O)C1CC(Cl)(Cl)Cl (centres undefined),56
17,COc1cc(Nc2c(C#N)cnc3cc(/C=C/CCO[Si](C)(C)C(C)(C)C)c(OC)cc23)c(Cl)cc1Cl,97 to 99
18,COc1cc(C(C)C)ccc1C1COc2c(C)c(C)cc(C)c21 (centres undefined),102 to 103
19,Cc1ccc(-c2n[nH]c3c2CCCC3)cc1,57.4 to 59.9
20,C=CCOc1ccc(C(=C)C)cc1,22 to 23
21,O=C1CCC(c2ccc3[nH]c(-c4ccsc4)cc3c2)=NN1,325 to 333
22,O=C1N[C@H](C(=O)O)CSCCCCCCCC1CS (some centres undefined),169 to 173

row,SMILES,melting point [°C]
1,OCC1OC(n2cnc3c(NC4CCCCC4O)ncnc32)C(O)C1O (centres undefined),210 to 211
2,C[C@@H]1SC(N)=N[C@H]1Cc1ccccc1,89
3,CCC1(CC)C(=O)N(C(C)(C)C)CC(C)(C)N1OC(=O)Nc1ccccc1,160 to 163
4,CCOC(=O)/C=C/c1ccc(OCCOC)cc1Oc1ccc([N+](=O)[O-])cc1,61 to 64
5,Cc1ccc(S(=O)(=O)Oc2ccc(CN3CCOCC3)nc2)cc1,68 to 69
6,CO/N=C(/C(N)=O)c1ccccc1COC(C)=O,121 to 123
7,COc1c(Cl)ccc(-c2nc(C(=O)OC(C)C)c(Cl)c(N)c2F)c1F,109 to 111
8,CC(C)C[C@H](NC(=O)C=Cc1ccccc1)C(=O)N[C@@H](Cc1ccccc1)C(=O)CSCc1ccco1,141 to 143
9,O=C(Nc1nc(-c2ccco2)c(C(=O)C2CCOCC2)s1)c1ccc(Cl)nc1,233 to 235
10,COc1ccc2c(c1)C(=NN)Cc1c(C#N)cccc1S2,186 to 187
11,O=S(=O)(NCCCCOc1ccc(-n2ccnc2)cc1)c1ccc(I)cc1,150 to 152
12,O=Cc1cccc(Sc2ccc(O)cc2)c1O,97 to 98
13,COc1ccc(CN2C(=O)CCc3cc(O)c(OC)cc32)cc1,168 to 169
14,Nc1nc(N)c2ncn(C3OC(CO)C(O)C3O)c2n1 (centres undefined),238 to 240
15,Cc1ccc(C2=CCN(CCCc3nnc4n3CCCCC4)CC2)cc1,93 to 96
16,COc1ccc(C(O)(c2ccc(OC)cc2)C2CCN(CCC3CN(C)C(=O)O3)CC2)cc1 (centres undefined),145 to 147
17,Cn1cnc([N+](=O)[O-])c1Sc1nc(N)nc2c1ncn2C1C=CC(CO)C1 (centres undefined),207 to 208
18,COc1ccc2c(c1)c(CC(=O)O)c(C)n2C(=O)c1ccc([N+](=O)[O-])o1,178 to 180
19,O=Nc1c(-c2ccccc2)nc2sccn12,175 to 177
20,O=C(O)C1=Cc2cc(I)ccc2NC1C(F)(F)F (centres undefined),188 to 192
21,CC(NC(=O)C(O)c1cc(F)cc(F)c1)C(=O)NC1N=C(c2ccccc2)c2ccccc2N(C)C1=O (centres undefined),128
22,O=c1oc2ccccc2n2cnc(-c3noc(C4CC4)n3)c12,234 to 236

row,SMILES,melting point [°C]
1,O=C1Nc2cc3c(cc2OC1CCCN1CCN(c2ccc(F)cc2)CC1)CCCC3 (centres undefined),156 to 157
2,Brc1csc(-c2cn([C@H]3CN4CCC3CC4)nn2)c1,106
3,O=C(O)C1=Cc2cc(C#Cc3ccccc3)ccc2OC1C(F)(F)F (centres undefined),240 to 241
4,COC(CCCNC(=O)C1CCC(C(=O)NCCCC(OC)OC)CC1)OC (centres undefined),191 to 195
5,CC1Cc2ccc(Cl)cc2C(c2ccc([N+](=O)[O-])cc2)=NN1C(N)=O (centres undefined),223 to 234
6,COC(=O)c1cccc2c1OCO2,55 to 57
7,Nc1nccc(OCc2ccccc2)c1[N+](=O)[O-],145 to 147
8,CCCc1cc(NC(=O)c2c(C)nn(C)c2C)c(C)cc1C(OC)(C(F)(F)F)C(F)(F)F,132 to 134
9,CCc1noc(-c2cn(-c3cccc(OC4CCCC4)c3)cn2)n1,132
10,O=C1/C(=C/c2ccccc2)C(Br)c2ccccc21 (centres undefined),118 to 119
11,COc1cc(C2CCCCC2)c(Cl)cc1CCO,78 to 79
12,COC(=O)C=C1CN=C(c2ccccc2F)c2cc(Cl)ccc2N1,158 to 160
13,S=C=NCCC1CC(c2ccccc2)=NO1 (centres undefined),54 to 56
14,O=C1NCCN1c1ccc(S(=O)(=O)Nc2cccc(Cl)c2)cc1,180 to 182
15,CCN(CC)C(=O)n1cnc(Sc2c(C)cccc2C)n1,111 to 112
16,CC(C)(C)OC(=O)NCCNC(=O)c1nocc1-c1ccccc1,170 to 171
17,Nc1ccc(C(O)(C(F)(F)F)C(F)(F)F)cc1O,168 to 170
18,CCOC(=O)C1(C(=O)OCC)SCC(N(C)C)CS1,38 to 39
19,Cc1ccc([N+](=O)[O-])c(=O)[nH]1,222 to 223
20,CC(C)[C@H](NC1CCCCC1)C(=O)NCCCC(c1ccc(F)cc1)c1ccc(F)cc1,49 to 53

# Other lines, results leading:
row,melting point [°C],SMILES
1,169 to 171,Cc1cnn(-c2nc3ccccc3c(=O)[nH]2)c1
2,142 to 143,CCCCNc1cc(CNc2ccccc2)cc(S(N)(=O)=O)c1Oc1ccccc1
3,142 to 144,CCCCCCCNC(=O)Nc1ccc(N(C)C)cc1C(=O)NCC1CCCN(C(c2ccccc2)c2ccccc2)C1 (centres undefined)
4,> 95,C#CCN(Cc1cc2c(=O)n(C)c(CN3CCN(c4ccccc4)CC3)nc2cc1Cl)c1ccc(C(=O)OC(C)(C)C)cc1
5,190 to 192,CCOC(=O)N1N=C(c2ccc(N)cc2)c2cc(Cl)c(Cl)cc2CC1C (centres undefined)
6,201 to 203,Cc1cc(-c2sc(N3CCN(Cc4ccc(C(F)(F)F)cc4)C3=O)nc2C)on1
7,200 to 201,CC(C)n1nc(-c2sc(NC(=O)CCNCc3ccccn3)nc2-c2ccccc2)ccc1=O
8,180 to 182,COc1ccc(S(=O)(=O)Nc2cccc(C)c2NC(=O)c2ccccn2)cc1
9,137 to 141,COc1cc2c3ccc(OC)c(OC)c3n(C(=O)c3ccc4ccccc4c3)c2cc1OC
10,169 to 170,O=C(O)c1cccc(-c2cccc3cc(Cc4cccc(C(F)(F)F)c4)oc23)c1
11,84 to 86,Cn1nc(-c2c(F)cccc2Cl)nc1COc1ccc(C(C)(C)C)cc1
12,> 240,CC(C)NC(=O)NCCn1c(CO)nc2c(N)nc3ccccc3c21
13,212,CC(c1ccc(C(=O)O)cc1)c1cc2cc(C(F)(F)F)ccc2n1S(=O)(=O)c1cccc(C(C)(C)C)c1 (racemic)
14,139,COc1c(OS(=O)(=O)c2ccc(C)cc2)cc2c(c1OC)C1=C(CCC1)C(N1C(=O)c3ccccc3C1=O)CC2 (centres undefined)
15,166 to 168,COc1cc(-c2ccc(S(C)(=O)=O)cc2)c(-c2ccc(F)cc2)c(C(F)(F)F)n1
16,227 to 229,CC(=O)c1ccc(Cc2cn(-c3ccc(F)cc3)c3ncccc3c2=O)cc1
17,84 to 86,CNC(=O)C(=NOC)c1ccccc1COc1ncc(Sc2ccccc2)cc1Cl
18,166 to 168,Cc1cccc2[nH]c(S(=O)Cc3cccn4ccnc34)nc12 (centres undefined)

row,melting point [°C],SMILES
1,234 to 235,O=C(Nc1c(C(=O)O)[nH]c2cc(Cl)cc(Cl)c12)c1ccccc1Cc1ccccc1
2,162 to 163,COc1ccc(CSc2nnc(-c3ccc4occ(-c5ccc(OC)cc5)c4c3)o2)cc1
3,83 to 85,CCO[C@@H](Cc1ccc(OCCN2CCC(C)(C)c3cc(C(=NOC)c4ccc(C(=O)O)cc4)ccc32)cc1)C(=O)O
4,134,Cc1nc(NC(=O)c2cnn3c(C(F)F)cc(-c4ccc(C(F)(F)F)cc4)nc23)sc1S(=O)(=O)NCCO
5,207,O=C(Nc1cccc(S(=O)(=O)C(F)(F)F)c1)c1cnn2c(C(F)F)cc(-c3ccc(C(F)(F)F)cc3)nc12
6,141 to 142,CCCOc1ccccc1-c1nc2nc(N(CC)CCO)ncc2c(=O)[nH]1
7,226,ON=C(c1ccc(F)cc1)c1ccc2nc(N[C@@H]3CCc4ccccc43)ccc2c1
8,174 to 176,Cc1ccc(-n2nc(C#N)cc2-c2ccc(S(C)(=O)=O)cc2)cc1Cl
9,71 to 72,Cc1cc2ncnn2nc1OCCOCCN1CCN(C(c2ccccc2)c2ccccc2)CC1
10,143 to 144,COc1ccc2c(c1)c(CC(=O)NN)cn2Cc1ccccc1
11,298 to 299,CCCCc1nc2ccc(C)c(C(=O)O)c2n1Cc1ccc(-c2ccccc2-c2nnn[nH]2)cc1
12,189 to 190,COc1ccc(CNn2c(=O)ccc3cnc(SC)nc32)cc1Cl
13,119 to 120,COCCOC(=O)Nc1cccc(C)c1COc1cccn2c(C=O)c(C)nc12
14,198 to 201,CCCN(CCc1ccccc1)CCc1cccc2[nH]c(=S)[nH]c12
15,284 to 285,O=C(O)c1ccc(-c2nc(-c3ccc(Cl)cc3)cs2)cc1
16,210 to 212,CNC(=O)CCCC1CCN(Cc2cnc3c(C)c(NC(=O)c4ccc(-c5ccc(F)cc5)cc4)ccc3c2)CC1
17,114 to 118,Cc1ccc(C(=O)N(C)C)cc1-c1nc(N(C)CCCN(C)C)nc2c1CNC(=O)N2c1c(F)cccc1F
